Data as given in patent publication US20040191168A1, “Tumor cell killing by cell cycle checkpoint abrogation combined with Inhibition of the classical mitogen activated protein (map) kinase pathway” (priority 2000, published 2004).
Read-outs that look alike come from different tables or passages of the source.

Assays:
U937 cells [1] = assay: Morphological assessment of apoptosis (Wright-Giemsa cytospins) in U937 cells; format: cell-based, human; settings: for effect on apoptosis in PD184352/UCN-01-treated cells / effect on induction of apoptosis by UCN-01 and PD184352: UCN-01 150 nM + PD184352 10 μM; for effect on apoptosis in PD184352/UCN-01-treated cells: SB203580 10 μM, CHX 1 mM; for Apoptotic cells (%): PD184352 10 μM, GFX 1 μM, safingol 2 μM, mean ± SD; for effect on induction of apoptosis by UCN-01 and PD184352: 10 h, caspase inhibitor 20 μM
Experimental: (§1) Experimental Format. All of the experiments were performed using logarithmically growing cells (3-5×10^5 cells/ml). Cell suspensions were placed in sterile 25 cm^2 T-flasks (Corning, Corning, N.Y.) and incubated with MEK or PKC inhibitors for 30 min at 37° C. At the end of this period, UCN-01 (or in some cases, caffeine) was added to the suspension, and the flasks were placed in 37° C./5% CO2 incubator at various intervals, generally 18 h. In some studies, the p38 MAP kinase inhibitor SB203580 was added concurrently with MEK inhibitors. After drug treatment, cells were harvested and subjected to further analysis as described below.
Analysis of Apoptosis. […] For each condition, 5 to 10 randomly selected fields/condition were evaluated, encompassing at least 500 cells (Vrana and Grant, 2001). To confirm the results of morphological analysis, in some cases cells were also evaluated by TUNEL staining (Gorczyca et al., 1993) and assessment of oligonucleosomal DNA fragmentation of total DNA. DNA fragmentation was analyzed by 1.8% agarose gel electrophoresis as described previously (Jarvis et al., 1994). For TUNEL staining, cytocentrifuge preparations were obtained and fixed with 4% formaldehyde. The slides were treated with acetic acid/ethanol (1:2), stained with terminal transferase reaction mixture containing terminal transferase reaction buffer, 0.25 units/ ml terminal transferase, 2.5 mM CoCl2, and 2 pmol fluorescein-12-dUTP (Boehringer Mannheim, Indianapolis, Ind.), and visualized using fluorescence microscopy.

U937 cells [2] = assay: Loss of mitochondrial membrane potential (reduced DiOC6 uptake, flow cytometry) in U937 cells; format: cell-based, human; settings: for effect on mitochondrial injury (loss of ΔΨm) in PD184352/UCN-01-treated cells / effect on loss of ΔΨm by UCN-01 and PD184352: UCN-01 150 nM + PD184352 10 μM; for effect on mitochondrial injury (loss of ΔΨm) in PD184352/UCN-01-treated cells: SB203580 10 μM, CHX 1 mM; for "Low" DiOC6 (% cells): PD184352 10 μM, GFX 1 μM, safingol 2 μM, mean ± SD; for effect on loss of ΔΨm by UCN-01 and PD184352: 10 h, caspase inhibitor 20 μM
Experimental: as §1
Analysis of Mitochondrial Membrane Potential (ΔΨm). Cells 2×10^5 were incubated with 40 nM DiOC6 (Molecular Probes Inc., Eugene, Oreg.) in PBS at 37° C. for 20 min and then analyzed by flow cytometry as described previously (Wang et al., 1999).

MAPK/ERK = assay: p42 MAPK immune complex kinase assay in carcinoma cells; format: cell-based, human; settings: MCF7, MDA-MB-231, T47D and DU145 cells; UCN-01 150 nM; MEK1/2 inhibitors (PD98059 25 μM, PD184352 10 μM, U0126 5 μM) given with UCN-01
Experimental: Immunoprecipitations from Lysates. Fifty microliters of Protein A agarose (Ag) slurry (25 μl bead volume) was washed twice with 1 ml PBS containing 0.1% (v/v) Tween 20, and resuspended in 0.1 ml of the same buffer. Antibodies (2 μg, 20 μl), serum (20 μl) were added to each tube and incubated (3 h, 4° C.). For pre-conjugated antibodies,10 μl of slurry (4 μg antibody) was used. Clarified equal aliquots of lysates (0.25 ml, 100 μg total protein) were mixed with Ag-conjugated antibodies in duplicate using gentle agitation (2.5 h, 4° C.). Ag-antibody-antigen complexes were recovered by centrifugation, the supernatant discarded, and washed (10 min) sequentially with 0.5 ml buffer A (twice), PBS and buffer B [25 mM Hepes, pH 7.4, 0.1 mM Na3VO4].
Assay of p42^MAPK activity. Immunoprecipitates were incubated (final volume 50 μl ) with 50 μl of buffer B containing 0.2 mM [γ-^32P]ATP (5000 cpm/pmol), 1 μM Microcystin-LR, 0.5 mg/ml myelin basic protein NP), which initiated reactions at time=0. After 20 min., 40 μl of the reaction mixtures were spotted onto a 2 cm circle of P81 paper (Whatman, Maidstone, England) and immediately placed into 180 mM phosphoric acid. Papers were washed four times (10 min each) with phosphoric acid, and once with acetone, and ^32P-incorporation into MBP was quantified by liquid scintillation spectroscopy.

DU145 cells = assay: Colony forming (clonogenic) assay in DU145 cells; format: cell-based, human; settings: 25 μM PD98059, 150 nM UCN-01, replated 48 h, ± SEM
Experimental: (§2) Colony forming (clonogenic) assay. Cells were plated 36 h prior to experimentation. Cells were pre-treated with MEK1/2 inhibitor as indicated, 2 h prior to exposure. Cells were irradiated (2 Gy). After a further 48 h, cells were isolated by tryptic digestion and single cell suspensions plated on Linbro® plates at densities of 500 cells/well and 1000 cells/well. Colony formation was defined as a colony of 50 cells or greater, 10 days after plating.

MCF7 cells [3] = assay: Colony forming (clonogenic) assay in MCF7 cells; format: cell-based, human; settings: 25 μM PD98059, 150 nM UCN-01, replated 48 h, ± SEM
Experimental: as §2

T47D cells = assay: Colony forming (clonogenic) assay in T47D cells; format: cell-based, human; settings: 25 μM PD98059, 150 nM UCN-01, replated 48 h, ± SEM
Experimental: as §2

MDA-MB-231 cells [4] = assay: Colony forming (clonogenic) assay in MDA-MB-231 cells; format: cell-based, human; settings: MDA-MB-231 (MDA), 25 μM PD98059, 150 nM UCN-01, replated 48 h, ± SEM
Experimental: as §2

MDA-MB-231 cells [5] = assay: TUNEL apoptosis in MDA-MB-231 cells; format: cell-based, human; settings: MDA-MB-231, 24 h; with 150 nM UCN-01; PD184352 10 μM, U0126 5 μM; FIG. 8A
Source text: (§3) Terminal Uridyl-Nucleotide End Labeling (TUNEL) for apoptosis.

MCF7 cells [6] = settings: MCF7, 24 h; with 150 nM UCN-01; PD184352 10 μM, U0126 5 μM; FIG. 8B
Experimental: Terminal Uridyl-Nucleotide End Labeling (TUNEL) for apoptosis. […] Cells were isolated 24 h after irradiation by trypsinizationi followed by centrifugation onto glass slides (cytospin). Terminal Uridyl-Nucleotide End Labeling (TUNEL) was performed on these cells as described previously [Wang et al., 1999; Park et al., 1999]. Randomly selected fields of fixed cells (150 cells per field, n=5 per slide) were counted initially using propidium iodide counter stain, followed by examination and counting of TUNEL positive staining cells of the same field under FITC/fluorescence light.

[7] = system: mammary and prostate carcinoma cells; assay: Apoptosis by double stranded DNA breaks (TUNEL) in carcinoma cells, all cell types examined; format: cell-based, human; settings: for effect on potentiation of apoptosis by MEK1/2 inhibitor and UCN-01: carcinoma cells, 24 h, 25 μM PD98059 + 150 nM UCN-01, caspase inhibitor 20 μM
Source text: as §3

Compound: C[C@@H]1C[C@@H]([C@H](O)CC2CC(=O)NC(=O)C2)C(=O)[C@@H](C)C1 [CHX, cycloheximide]
- effect on apoptosis in PD184352/UCN-01-treated cells (U937 cells [1]; U937 cells, 18 h): not attenuated
- effect on mitochondrial injury (loss of ΔΨm) in PD184352/UCN-01-treated cells (U937 cells [2]; 18 h): not attenuated

Compound: Cn1c(=O)c2c(ncn2C)n(C)c1=O [Caffeine]
- apoptosis in PD184352-treated cells (U937 cells [1]; U937 cells, 18 h, caffeine 2 mM with PD184352 10 μM, FIG. 4A): substantially increased
- mitochondrial damage (reduction in ΔΨm) in PD184352-treated cells (U937 cells [2]; 18 h, caffeine 2 mM with PD184352 10 μM, FIG. 4A): substantially increased

Compound: O=c1cc(N2CCOCC2)oc2c(-c3ccccc3)cccc12 [LY294002]
- percentage of apoptotic cells (U937 cells [1]; U937 cells, 24 hr, 100 nM UCN-01, 10 μM LY294002, FIG. 14): about 20%

Compound: COc1cccc(-c2cc(=O)c3ccccc3o2)c1N [PD98059]
- cell death (morphological features of apoptosis) on coadministration with UCN-01 (U937 cells [1]; U937 cells, 24 h, with 200 nM UCN-01, PD98059 50 μM, U0126 20 μM (FIG. 1C, D)): marked potentiation of cell death
- MAPK/ERK activity (immune complex kinase assay) (MAPK/ERK): opposed
- clonogenic survival (colonies, normalized to control unirradiated cells = 100%) (DU145 cells; DU145, 2 Gy): 65 ± 2%
- clonogenic survival (colonies, normalized to control unirradiated cells = 100%) (DU145 cells; DU145, mock irradiated): 99 ± 6%
- clonogenic survival (colonies, normalized to control unirradiated cells = 100%) (MCF7 cells [3]; MCF7, 2 Gy): 39 ± 3 %
- clonogenic survival (colonies, normalized to control unirradiated cells = 100%) (MCF7 cells [3]; MCF7, mock irradiated): 91 ± 5%
- clonogenic survival (colonies, normalized to control unirradiated cells = 100%) (T47D cells; 2 Gy): 69 ± 5%
- clonogenic survival (colonies, normalized to control unirradiated cells = 100%) (T47D cells; mock irradiated): 97 ± 2%
- clonogenic survival (colonies, normalized to control unirradiated cells = 100%) (MDA-MB-231 cells [4]; 2 Gy): 44 ± 1 %
- clonogenic survival (colonies, normalized to control unirradiated cells = 100%) (MDA-MB-231 cells [4]; mock irradiated): 91 ± 1%

Compound: C[S+]([O-])c1ccc(-c2nc(-c3ccncc3)c(-c3ccc(F)cc3)[nH]2)cc1 (centres unmarked) [SB203580]
- effect on apoptosis in PD184352/UCN-01-treated cells (U937 cells [1]; U937 cells, 18 h): only partially attenuated
- effect on mitochondrial injury (loss of ΔΨm) in PD184352/UCN-01-treated cells (U937 cells [2]; 18 h): only partially attenuated

Compound: CCCCCCCCCCCCCCC[C@H](O)[C@@H](N)CO [Safingol]
- Apoptotic cells (%) (U937 cells [1]; U937 cells, 18 h): 1.9 ± 0.2%
- "Low" DiOC6 (% cells) (U937 cells [2]; 18 h): 13.6 ± 0.8%

Compound: N#CC(=C(/N)Sc1ccccc1N)/C(C#N)=C(\N)Sc1ccccc1N [U0126]
- cell death (morphological features of apoptosis) on coadministration with UCN-01 (U937 cells [1]): marked potentiation of cell death
- MAPK/ERK activity (immune complex kinase assay) (MAPK/ERK): opposed
- apoptosis in combination with UCN-01 (MDA-MB-231 cells [5]): enhanced apoptosis
- apoptosis in combination with UCN-01 (MCF7 cells [6]): enhanced apoptosis

Compound: IETD
- effect on induction of apoptosis by UCN-01 and PD184352 (U937 cells [1]; U937 cells): ineffective
- effect on loss of ΔΨm by UCN-01 and PD184352 (U937 cells [2]): ineffective
- effect on potentiation of apoptosis by MEK1/2 inhibitor and UCN-01 [7]: partially attenuated

Compound: ZVAD-fmk
- effect on induction of apoptosis by UCN-01 and PD184352 (U937 cells [1]; U937 cells): blocked
- effect on loss of ΔΨm by UCN-01 and PD184352 (U937 cells [2]): blocked
- effect on potentiation of apoptosis by MEK1/2 inhibitor and UCN-01 [7]: abolished

Compound: bisindolylmaleimide [GFX]
- Apoptotic cells (%) (U937 cells [1]; U937 cells, 18 h): 1.9 ± 0.2%
- "Low" DiOC6 (% cells) (U937 cells [2]; 18 h): 13.2 ± 0.6%
- apoptosis after 24 h ([7]; all carcinoma cell types examined, bisindolylmaleimide 1 μM in place of UCN-01): did not mimic the actions of UCN-01
